Columns and labels:
[1] = test system: Scopolamine Induced Memory Deficit; assay: Scopolamine-induced Dark Avoidance Assay; details: s.c., mice, 24 h
Experimental: In this assay mice are tested for their ability to remember an unpleasant stimulus for a period of 24 hours. A mouse is placed in a chamber that contains a dark compartment; a strong incandescent light drives it to the dark compartment, where an electric shock is administered through metal plates on the floor. The animal is removed from the testing apparatus and tested again, 24 hours later, for the ability to remember the electric shock.
If scopolamine, an anticholinergic that is known to cause memory impariment, is administered before an animal's initial exposure to the test chamber, the animal re-enters the dark compartment shortly after being placed in the test chamber 24 hours later.

[2] = molecular target: acetylcholinesterase (Homo sapiens, UniProt P22303); assay: Cholinesterase inhibition assay (photometric method of Ellman et al.); assay type: biochemical
Sequence of acetylcholinesterase (P22303 32-614): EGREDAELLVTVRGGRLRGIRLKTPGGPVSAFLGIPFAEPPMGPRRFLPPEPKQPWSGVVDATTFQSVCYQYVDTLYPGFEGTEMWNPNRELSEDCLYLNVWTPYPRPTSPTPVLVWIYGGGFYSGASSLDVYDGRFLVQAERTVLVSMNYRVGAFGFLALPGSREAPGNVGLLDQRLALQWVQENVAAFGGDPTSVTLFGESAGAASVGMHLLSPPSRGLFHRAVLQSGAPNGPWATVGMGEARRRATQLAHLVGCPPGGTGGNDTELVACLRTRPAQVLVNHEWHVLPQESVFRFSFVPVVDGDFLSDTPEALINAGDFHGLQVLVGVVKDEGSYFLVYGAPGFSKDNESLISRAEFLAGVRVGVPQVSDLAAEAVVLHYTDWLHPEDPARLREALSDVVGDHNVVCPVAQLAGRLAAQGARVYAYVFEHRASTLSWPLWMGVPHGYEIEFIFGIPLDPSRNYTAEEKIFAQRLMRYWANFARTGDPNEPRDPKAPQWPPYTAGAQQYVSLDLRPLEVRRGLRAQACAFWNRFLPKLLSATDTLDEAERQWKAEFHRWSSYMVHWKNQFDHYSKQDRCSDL

SMILES: CC1(C(=O)O)CCCCC1=Nc1c2c(nc3ccccc13)CCCC2 (stereo not drawn) [1-Methyl-2-(1,2,3,4-tetrahydroacridinimino)cyclohexane carboxylic acid]
- % of Animals with Scopolamine Induced Memory Deficit Reversal ([1]; 2.5 mg/kg of body weight): 20%

SMILES: CCOC(=O)C1CCCCC1=Nc1c2c(nc3ccccc13)CCCC2 (stereo not drawn) [2-(1,2,3,4-Tetrahydro-9-acridinimino)cyclohexanecarboxylic acid ethyl ester]
- % of Animals with Scopolamine Induced Memory Deficit Reversal ([1]; 0.16 mg/kg of body weight): 29%
- IC50 [2]: 15.2 µM

SMILES: O=C(O)C1CCCCC1=Nc1c2c(nc3ccccc13)CCCC2 (stereo not drawn) [2-(1,2,3,4-Tetrahydro-9-acridinimino)cyclohexanecarboxylic acid]
- % of Animals with Scopolamine Induced Memory Deficit Reversal ([1]; 0.63 mg/kg of body weight): 53%

SMILES: O=C(OCc1ccccc1)C1=C(N(Cc2ccccc2)c2c3c(nc4ccccc24)CCCC3)CCCC1 [2-[N-(Phenylmethyl)-1,2,3,4-tetrahydro-9-acridinamino]-cyclohex-1-ene carboxylic acid phenylmethyl ester]
- % of Animals with Scopolamine Induced Memory Deficit Reversal ([1]; 0.63 mg/kg of body weight): 29%

SMILES: CNC(=O)Oc1ccc2c(c1)[C@]1(C)CCN(C)[C@@H]1N2C [Physostigmine, reference compound]
- % of Animals with Scopolamine Induced Memory Deficit Reversal ([1]; 0.31 mg/kg of body weight): 20%

Source: patent publication US4999358A, “(1,2,3,4-tetrahydro-9-acridinimino)cyclohexane carboxylic acid and related compounds” (Hoechst-Roussel Pharmaceuticals Inc., priority 1989, dated 1991)
